Measurements published in US20140128385A1 (NOVARTIS AG, priority 2011, published 2014).
Structures can show the parent of a compound that is named as a salt.

Target: T1, BACE-2 (Homo sapiens, UniProt Q9Y5Z0)
T1 construct: Recombinant BACE-2 (extracellular domain, expressed in baculovirus and purified using standard methods); made in house
T1 sequence (Q9Y5Z0 63-473 limits assumed): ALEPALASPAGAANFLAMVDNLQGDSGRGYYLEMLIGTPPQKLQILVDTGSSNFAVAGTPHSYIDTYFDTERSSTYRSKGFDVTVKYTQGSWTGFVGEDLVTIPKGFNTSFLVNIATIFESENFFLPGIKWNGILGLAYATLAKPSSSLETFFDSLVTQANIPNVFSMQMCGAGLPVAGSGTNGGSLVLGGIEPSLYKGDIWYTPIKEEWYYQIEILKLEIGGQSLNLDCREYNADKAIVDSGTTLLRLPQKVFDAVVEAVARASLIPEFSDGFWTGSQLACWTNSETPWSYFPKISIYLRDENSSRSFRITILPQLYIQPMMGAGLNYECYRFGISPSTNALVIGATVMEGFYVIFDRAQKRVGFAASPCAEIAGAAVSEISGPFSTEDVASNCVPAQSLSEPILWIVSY
Assay: assay for inhibition of BACE-2
Type: biochemical

IC50 [µM]	SMILES
0.798	CN1CC(N)=NC(C)(c2cccc(NC(=O)c3ccc(Br)cn3)c2)C1=O (stereo not drawn) [Example 188, 5-Bromo-pyridine-2-carboxylic acid [3-(6-amino-2,4-dimethyl-3-oxo-2,3,4,5-tetrahydro-pyrazin-2-yl)-phenyl]-amide]
0.049	CN1CC(C)(c2cc(NC(=O)c3ccc(Br)cn3)ccc2F)N=C(N)C1=O (stereo not drawn) [Example 189, 5-Bromo-pyridine-2-carboxylic acid [3-(6-amino-2,4-dimethyl-5-oxo-2,3,4,5-tetrahydro-pyrazin-2-yl)-4-fluoro-phenyl]-amide hydrochloride]
0.013	CN1CC(C)(c2cc(NC(=O)c3ncc(Cl)cc3Cl)ccc2F)N=C(N)C1=O (stereo not drawn) [Example 192, 3,5-Dichloro-pyridine-2-carboxylic acid [3-(6-amino-2,4-dimethyl-5-oxo-2,3,4,5-tetrahydro-pyrazin-2-yl)-4-fluoro-phenyl]-amide hydrochloride]
0.018	Cn1cc(N2CC(C)(c3cc(NC(=O)c4ccc(Br)cn4)ccc3F)N=C(N)C2=O)cn1 (stereo not drawn) [Example 197, 5-Bromo-pyridine-2-carboxylic acid {3-[6-amino-2-methyl-4-(1-methyl-1H-pyrazol-4-yl)-5-oxo-2,3,4,5-tetrahydro-pyrazin-2-yl]-4-fluoro-phenyl}-amide hydrochloride]
0.009	CC1(c2cc(NC(=O)c3ccc(Br)cn3)ccc2F)CN(c2cccnc2)C(=O)C(N)=N1 (stereo not drawn) [Example 198, 5-Bromo-pyridine-2-carboxylic acid [3-(6-amino-2-methyl-5-oxo-4-pyridin-3-yl-2,3,4,5-tetrahydro-pyrazin-2-yl)-4-fluoro-phenyl]-amide hydrochloride]
0.066	N#Cc1ccc(C(=O)Nc2ccc(F)c(C3(C(F)F)CNCC(N)=N3)c2)nc1 (stereo not drawn) [Example 202, 5-Cyano-pyridine-2-carboxylic acid [3-(6-amino-2-difluoromethyl-2,3,4,5-tetrahydro-pyrazin-2-yl)-4-fluoro-phenyl]-amide]
0.104	COC(=O)N1CC(N)=NC(c2cc(NC(=O)c3ccc(C#N)cn3)ccc2F)(C(F)F)C1 (stereo not drawn) [Example 205, 5-Amino-3-{5-[(5-cyano-pyridine-2-carbonyl)-amino]-2-fluoro-phenyl}-3-difluoromethyl-3,6-dihydro-2H-pyrazine-1-carboxylic acid methyl ester]
0.003	Cc1cc(Br)cnc1C(=O)Nc1ccc(F)c(C2(C(F)F)CN(C(=O)OCC(Cl)Cl)CC(N)=N2)c1 (stereo not drawn) [Example 207, 5-Amino-3-{5-[(5-bromo-3-methyl-pyridine-2-carbonyl)-amino]-2-fluoro-phenyl}-3-difluoromethyl-3,6-dihydro-2H-pyrazine-1-carboxylic acid 2,2-dichloro-ethyl ester]
0.004	COCC(=O)N1CC(N)=NC(c2cc(NC(=O)c3ncc(Br)cc3C)ccc2F)(C(F)F)C1 (stereo not drawn) [Example 208, 5-Bromo-3-methyl-pyridine-2-carboxylic acid {3-[6-amino-2-difluoromethyl-4-(2-methoxy-acetyl)-2,3,4,5-tetrahydro-pyrazin-2-yl]-4-fluoro-phenyl}-amide]
0.006	Cc1cc(Br)cnc1C(=O)Nc1ccc(F)c(C2(C(F)F)CN(C(=O)C3CC3)CC(N)=N2)c1 (stereo not drawn) [Example 209, 5-Bromo-3-methyl-pyridine-2-carboxylic acid [3-(6-amino-4-cyclopropanecarbonyl-2-difluoromethyl-2,3,4,5-tetrahydro-pyrazin-2-yl)-4-fluoro-phenyl]-amide]
0.023	Cc1cc(Br)cnc1C(=O)Nc1ccc(F)c(C2(C(F)F)CNCC(N)=N2)c1 (stereo not drawn) [Example 210, 5-Bromo-3-methyl-pyridine-2-carboxylic acid [3-(6-amino-2-difluoromethyl-2,3,4,5-tetrahydro-pyrazin-2-yl)-4-fluoro-phenyl]-amide]
0.061	N#Cc1cnc(C(=O)Nc2ccc(F)c([C@]3(C(F)F)COCC(N)=N3)c2)c(Cl)c1 [Example 216]
0.065	COc1cnc(C(=O)Nc2ccc(F)c([C@]3(C(F)F)COCC(N)=N3)c2)c(C)c1 [Example 221]
0.059	[2H]C([2H])([2H])OCc1cc(F)cnc1C(=O)Nc1ccc(F)c([C@]2(C(F)F)COCC(N)=N2)c1 [Example 223]

Continued, molecule first:

SMILES	IC50 [µM]
CN1CC(C)(c2cc(NC(=O)c3ccc(Cl)cn3)ccc2F)N=C(N)C1=O (stereo not drawn) [Example 190, 5-Chloro-pyridine-2-carboxylic acid [3-(6-amino-2,4-dimethyl-5-oxo-2,3,4,5-tetrahydro-pyrazin-2-yl)-4-fluoro-phenyl]-amide hydrochloride]	0.035
CCN1CC(C)(c2cc(NC(=O)c3ccc(Br)cn3)ccc2F)N=C(N)C1=O (stereo not drawn) [Example 191, 5-Bromo-pyridine-2-carboxylic acid [3-(6-amino-4-ethyl-2-methyl-5-oxo-2,3,4,5-tetrahydro-pyrazin-2-yl)-4-fluoro-phenyl]-amide hydrochloride]	0.03
CCN1CC(C)(c2cc(NC(=O)c3ncc(Cl)cc3Cl)ccc2F)N=C(N)C1=O (stereo not drawn) [Example 193, 3,5-Dichloro-pyridine-2-carboxylic acid [3-(6-amino-4-ethyl-2-methyl-5-oxo-2,3,4,5-tetrahydro-pyrazin-2-yl)-4-fluoro-phenyl]-amide hydrochloride]	0.008
CC(C)N1CC(C)(c2cc(NC(=O)c3ccc(Br)cn3)ccc2F)N=C(N)C1=O (stereo not drawn) [Example 194, 5-Bromo-pyridine-2-carboxylic acid [3-(6-amino-4-isopropyl-2-methyl-5-oxo-2,3,4,5-tetrahydro-pyrazin-2-yl)-4-fluoro-phenyl]-amide hydrochloride]	0.047
COCCN1CC(C)(c2cc(NC(=O)c3ncc(Cl)cc3Cl)ccc2F)N=C(N)C1=O (stereo not drawn) [Example 195, 3,5-Dichloro-pyridine-2-carboxylic acid {3-[6-amino-4-(2-methoxy-ethyl)-2-methyl-5-oxo-2,3,4,5-tetrahydro-pyrazin-2-yl]-4-fluoro-phenyl}-amide hydrochloride]	0.006
COCCN1CC(C)(c2cc(NC(=O)c3ccc(Br)cn3)ccc2F)N=C(N)C1=O (stereo not drawn) [Example 196, 5-Bromo-pyridine-2-carboxylic acid {3-[6-amino-4-(2-methoxy-ethyl)-2-methyl-5-oxo-2,3,4,5-tetrahydro-pyrazin-2-yl]-4-fluoro-phenyl}-amide hydrochloride]	0.017
CCN1CC(C)(c2cc(NC(=O)c3ccc(C#N)cn3)ccc2F)N=C(N)C1=O (stereo not drawn) [Example 199, 5-Cyano-pyridine-2-carboxylic acid [3-(6-amino-4-ethyl-2-methyl-5-oxo-2,3,4,5-tetrahydro-pyrazin-2-yl)-4-fluoro-phenyl]-amide hydrochloride]	0.132
NC1=NC(c2cc(NC(=O)c3ccc(Br)cn3)ccc2F)(C(F)F)CNC1 (stereo not drawn) [Example 201, 5-Bromo-pyridine-2-carboxylic acid [3-(6-amino-2-difluoromethyl-2,3,4,5-tetrahydro-pyrazin-2-yl)-4-fluoro-phenyl]-amide]	0.024
N#Cc1ccc(C(=O)Nc2ccc(F)c(C3(C(F)F)CNC(=O)C(N)=N3)c2)nc1 (stereo not drawn) [Example 203, 5-Cyano-pyridine-2-carboxylic acid [3-(6-amino-2-difluoromethyl-5-oxo-2,3,4,5-tetrahydro-pyrazin-2-yl)-4-fluoro-phenyl]-amide]	0.007
COC(=O)N1CC(N)=NC(c2cc(NC(=O)c3ccc(Br)cn3)ccc2F)(C(F)F)C1 (stereo not drawn) [Example 204, 5-Amino-3-{5-[(5-bromo-pyridine-2-carbonyl)-amino]-2-fluoro-phenyl}-3-difluoromethyl-3,6-dihydro-2H-pyrazine-1-carboxylic acid methyl ester]	0.01
CC(=O)N1CC(N)=NC(c2cc(NC(=O)c3ncc(Br)cc3C)ccc2F)(C(F)F)C1 (stereo not drawn) [Example 206, 5-Bromo-3-methyl-pyridine-2-carboxylic acid [3-(4-acetyl-6-amino-2-difluoromethyl-2,3,4,5-tetrahydro-pyrazin-2-yl)-4-fluoro-phenyl]-amide]	0.004
CC(=O)N1CC(N)=NC(c2cc(NC(=O)c3ncc(OC(F)F)cc3C)ccc2F)(C(F)F)C1 (stereo not drawn) [Example 211, 5-Difluoromethoxy-3-methyl-pyridine-2-carboxylic acid [3-(4-acetyl-6-amino-2-difluoromethyl-2,3,4,5-tetrahydro-pyrazin-2-yl)-4-fluoro-phenyl]-amide]	0.089
NC1=N[C@@](c2cc(NC(=O)c3ncc(=O)[nH]c3N)ccc2F)(C(F)F)CNC1 [Example 214, 3-Amino-5-oxo-4,5-dihydro-pyrazine-2-carboxylic acid [3-((R)-6-amino-2-difluoromethyl-2,3,4,5-tetrahydro-pyrazin-2-yl)-4-fluoro-phenyl]-amide]	0.757
COCc1cc(Cl)cnc1C(=O)Nc1ccc(F)c([C@]2(C(F)F)COCC(N)=N2)c1 [Example 215, 5-Chloro-3-methoxymethyl-pyridine-2-carboxylic acid [3-((R)-5-amino-3-difluoromethyl-3,6-dihydro-2H-[1,4]oxazin-3-yl)-4-fluoro-phenyl]-amide]	0.011
[2H]C([2H])([2H])Oc1cnc(C(=O)Nc2ccc(F)c([C@]3(C(F)F)COCC(N)=N3)c2)c(N)n1 [Example 217]	0.153
C#CCOc1cnc(C(=O)Nc2ccc(F)c([C@]3(C(F)F)COCC(N)=N3)c2)c(N)n1 [Example 218]	0.125
NC1=N[C@@](c2cc(NC(=O)c3ccc4c(Cl)c[nH]c4n3)ccc2F)(C(F)F)COC1 [Example 219]	0.117
NC1=N[C@@](c2cc(NC(=O)c3ncc(C(F)F)nc3N)ccc2F)(C(F)F)COC1 [Example 220]	0.116
Cc1cc(C(F)F)cnc1C(=O)Nc1ccc(F)c([C@]2(C(F)F)COCC(N)=N2)c1 [Example 222]	0.052
